From US5866562A, “Ring-bridged bis-quinolines” (Bayer Aktiengesellschaft, priority 1996, dated 1999)
pKi: −log10 of the molar value.

How the values were obtained:
[1] = target: apamine binding sites in bovine cerebral membranes (apamine-sensitive potassium channels); assay: Binding of ^125 I-apamine to bovine cerebral membranes; conditions: ^125 I-apamine 30 pM; calf hippocampus membranes; pH 7.4; 60 min on ice
Procedure: 1) Binding of ^125 I-apamine to bovine cerebral membranes
Calfbrains were obtained from the local abattoir. The hippocampus was prepared on ice and a membrane suspension was made up by homogenization twice in buffer (100 mM Tris-HCl, KCl 5 mM, pH 7.4) and centrifugation at 43,000×g. In a total volume of 500 μl, the incubation mixture contained 200 μg of membrane protein, 30 pM ^125 I-apamine and test substances in the concentration range 1×10^-9 to 1×10^-4 M. The non-specific binding of ^125 I-apamine was determined in the presence of 1×10^-7 M unlabelled apamine.
After preincubation for 30 min at room temperature (test substances and membrane homogenate), the samples were placed on ice for 10 min before the radioligand was added. The main incubation time was 60 min on ice. When the reaction time had elapsed, an excess of ice-cooled incubation buffer was added to each sample and the mixture was filtered with suction through cellulose acetate/nitrate membrane filters. The amount of bound ^125 I-apamine was measured with a gamma counter.

[2] = system: apamine-sensitive rubidium efflux in PC12 cells (potassium channels); assay: Non-radioactive Rb+ efflux assay for the identification of potassium channel modulators; format: cell-based; conditions: Rattus norvegicus, PC-12, 10 min, at a test concentration of 10 μM, 50 mM KCl depolarization
Procedure: 2) Non-radioactive Rb^+ efflux assay for the identification of potassium channel modulators
The potassium in PC12 cells is exchanged with rubidium, which is not present in the cells. This exchange is performed by incubating the cells over a period of 4 h in a physiological buffer containing 5.4 mM RbCl without KCl. This rubidium subsequently serves as a tracer for potassium.
The cells laden with Rb^+ in this way are washed three times and then stimulated by depolarization with 50 mM KCl to open potassium channels (10 min), causing Rb^+ to flow out of the cells into the supernatant according to the concentration gradient.
The rubidium contents in the cell supernatant and in the residual cells after they have been lysed with 1% Triton X-100 are then determined by means of atomic absorption spectroscopy. The relative proportion of rubidium in the cell supernatant (=Rb^+ efflux) is used as a measure of the potassium channel activity.
The effect of substances on the channel activity is measured by co-incubating the test substance over the ten-minute stimulation period and determining its effect on the Rb^+ efflux in the manner described above.

SMILES	pKi [1]	inhibition at 10 µM [2] [%]
c1ccc2c(N3CCCN(c4ccnc5ccccc45)CC3)ccnc2c1 [Example 1]	6.11	–
Cc1cc(N2CCCN(c3cc(C)nc4cccc(O)c34)CC2)c2c(O)cccc2n1 [Example 7]	–	58
Cc1cc(N2CCCN(c3cc(C)nc4c(C)cccc34)CC2)c2cccc(C)c2n1 [Example 12]	7.46	73
